Assay results from US20030207813A1, “Retroviral protease inhibitor combinations” (priority 1995, published 2003).
≈ marks a conversion by molar mass, not a printed value. Read-outs that look alike come from different tables or passages of the source.

Test system: HIV-1RF
Test: CEM-T4 cell infection assay, reverse transcriptase readout, isolate RF
Type: cell-based
Conditions: Human immunodeficiency virus 1, CEM-T4, 168 h, 7 days, read-out: Virus Isolate (EC50 ng/mL) RF
Description: RF represents the HIV-1 strain HIV-LRF and RFR represents a mixture of resistant strains obtained by selection of RF against the compound of Example 1. RFR comprises a mixture of viral strains having protease genotypes of G48V (14/40 clones); G48V, V82A (18/40 clones); G48V, L90S (2/40 clones); G48V, 154T, V82A (1/40 clones); G48M (1/40 clones); G48V, Q61H (1/40 clones); V13I, G48V (1/40 clones); G48V, F53L, V82A (1/40 clones); and G48V, V82A, C95Y (1/40 clones). RFR2 represents a mixture of resistant strains obtained by cloning RFR by three rounds of growth at limiting dilution. RFR2 comprises a mixture of viral strains having protease genotypes of G48V, V82A (13/15 clones); G17E, G48V, V82A (1/15 clones); and G48V, V82A, N37D, N88D (1/15 clones). RFRR represents a mixture of resistant strains obtained by selection of RF against the compounds of Examples 1 and 2 and then cloning by three rounds of growth at limiting dilution. RFRR comprises a mixture of viral strains having protease genotypes of G48V, 154T, L63P, V82A (7/9 clones); G48V, 154T, L63P, V82A, N88S (1/9 clones); and G48V, 154T, L63P, G73M, V82A (1/9 clones). SF162 represents the HIV-1 strain SF-162 and SF162R represents a mixture of resistant strains obtained by selection of SF162 against the compound of Example 1. SF162R comprises a mixture of viral strains having protease genotypes of M461, F53L, L63P, A71V, N88D (2/3 clones); and M46I, F53L, L63P, A71V, N88D, Q92R (1/3 clones). 89-959 represents the HIV-1 strain 89-959 and 89-959R represents a mixture of resistant strains obtained by selection of 89-959 against the compound of Example 2. 89-959R comprises a mixture of viral strains having protease genotypes of N88S (4/5 clones); and D25N, T26A, D30N, D37N, R41K, G73D, R87K, N88S (1/4 clones). NL4 represents the HIV-1 strain HIV-1NL4-3. NL4(G48V) represents a strain having a synthetically generated site-directed mutation in the protease from glycine to valine at amino acid position number 48. NL4(I84V) represents a strain having a synthetically generated site-directed mutation in the protease from isoleucine to valine at amino acid position number 84. NL4(R8Q,M46I) represents a strain having synthetically generated site-directed mutations in the protease from arginine to glutamine at amino acid position number 8 and methionine to isoleucine at amino acid position number 46. NL4(P22-538) represents a mixture of resistant strains obtained by selection of HIV-1NL4-3 against the compound of Example 10 after 22 passages comprising protease genotypes M46I, L63P, A71V, V82F, I84V (4/10); M46I, L63P, V82F, I84V (3/10); and M46I, A71V, V82F, I84V (3/10). NL4(P37-538) represents resistant strains obtained by selection of HIV-1NL4-3 against the compound of Example 10 after 37 passages comprising protease genotype M46I, L63P, A71V, 184A. NL4(538/524) represents resistant strains obtained by selection of NL4(P22-538) against the compound of Example 5 after 24 passages comprising protease genotype M46I, L63P, A71V, 184A. NL4(538/P7-AG) represents a mixture of resistant strains obtained by selection of NL4(P22-538) against the compound of Example 12 after 7 passages comprising protease genotypes M46I, L63P, A71V, 184A; and V321, V82I. NL4(538/P24-AG) represents resistant strains obtained by selection of NL4(P22-538) against the compound of Example 12 after 24 passages comprising protease genotype M46I, L63P, A71V, 184A. NLA(P19-003) represents resistant strains obtained by selection of HIV-1^NL4-3 against the compound of Example 9 after 19 passages comprising protease genotype R8K, M46I. NL4(P34-003) represents resistant strains obtained by selection of HIV-1^NL4-3 against the compound of Example 9 after 34 passages comprising protease genotype R8K, M46I, L63P, A71V, L90M.
The viral isolate resistance results summarized in Tables 4-6 were generated according to the following assay procedure or minor modifications thereof. Assays are performed in 96-well tissue culture plates. […]

Row | SMILES | EC50 (Table 4, CEM-T4 cells) [ng/mL] | EC50 (Table 5, CEM-T4 cells) [ng/mL] | EC50 (Table 6, CEM-T4 cells) [ng/mL]
1 | CC(C)CN(C[C@@H](O)[C@H](Cc1ccccc1)NC(=O)[C@H](CC(N)=O)NC(=O)c1ccc2ccccc2n1)C(=O)NC(C)(C)C (relative stereo) [Example 1, [1S-[1R*(R*),2S*]]-N^1-[3-[[[(1,1-dimethylethyl)amino]carbonyl])2-methylpropyl)amino]-2-hydroxy-1-(phenylmethyl)propyl]-2-[(2-quinolinylcarbonyl)amino]-butanediamide] | 30 (≈ 0.0496 µM) | 24 (≈ 0.0397 µM) | 19 (≈ 0.0314 µM)
2 | CC(C)CCN(C[C@@H](O)[C@H](Cc1ccccc1)NC(=O)[C@H](CC(N)=O)NC(=O)c1ccc2ccccc2n1)C(=O)NC(C)(C)C (relative stereo) [Example 7, [1S-[1R*(R*),2S*]]-N^1-[3-[[[(1,1-dimethylethyl)amino]carbonyl](3-methylbutyl)amino]-2-hydroxy-1-(phenylmethyl)propyl]-2-[(2-quinolinylcarbonyl)amino]-butanediamide] | – | 2 (≈ 0.00323 µM) | –
3 | CC(C)(C)NC(=O)[C@@H]1CC2CCCC[C@@H]2CN1C[C@@H](O)[C@H](Cc1ccccc1)NC(=O)[C@H](CC(N)=O)NC(=O)c1ccc2ccccc2n1 (stereo in doubt) [Example 6, N-tert-Butyl decahydro-2-[2(R)-hydroxy-4-phenyl-3(S)-[[N-(2-quinolylcarbonyl)-L-asparaginyl]amino]butyl]-(4aR,8aS)-isoquinoline-3(S)-carboxamide] | 12 (≈ 0.0179 µM) | – | 6 (≈ 0.00894 µM)
4 | CNCC(=O)N[C@H](C(=O)N[C@@H](Cc1ccccc1)[C@H](O)CN(CCC(C)C)C(=O)NC(C)(C)C)C(C)(C)C [Example 2, (2R,3S)-3-(N-methylaminoacetyl-L-tert-butylglycinyl)amino-1-(N-isoamyl-N-(tert-butylcarbamoyl))amino-4-phenyl-2-butanol] | 40 (≈ 0.0749 µM) | – | 35 (≈ 0.0656 µM)
5 | CC(C)(C)NC(=O)[C@@H]1CN(Cc2cccnc2)CCN1C[C@@H](O)C[C@@H](Cc1ccccc1)C(=O)N[C@H]1c2ccccc2C[C@H]1O [Example 5, N-(2(R)-Hydroxy-1(S)-indanyl)-2(R)-phenylmethyl-4(S)-hydroxy-5-(1-(4-(3-pyridylmethyl)-2(S)-N′-(t-butylcarboxamido)-piperazinyl))-pentaneamide] | 44 (≈ 0.0717 µM) | – | 6 (≈ 0.00978 µM)
6 | CC(C)CN(C[C@@H](O)[C@H](Cc1ccccc1)NC(=O)[C@H](CC(N)=O)NC(=O)c1ccc2ccccc2n1)S(=O)(=O)NC(C)(C)C [Example 8, N-[3-[N^2-[N^1-(1,1-dimethylethyl)aminosulfonyl]-N^2-(2-methylpropyl)amino]-2R-hydroxy-1S-(phenylmethyl)propyl]-2S-[(2-quinolinylcarbonyl)amino]butanediamide] | – | 2 (≈ 0.00312 µM) | –
